Assay results as given in article PMC6661771, “Indole hybridized diazenyl derivatives: synthesis, antimicrobial activity, cytotoxicity evaluation and docking studies” (BMC Chemistry, 2019).
Values after ≈ are worked out from the molar mass of the structure shown. Read-outs that look alike come from different tables or passages of the source.

Columns and labels:
[1] = test system: E. coli; assay: Minimum bactericidal concentration (MBC); type: cell-based; conditions: Escherichia coli
[2] = test system: K. pneumonia; assay: MIC by tube dilution method; type: cell-based; conditions: Klebsiella pneumoniae, 24 h, 24 h at 37 °C, read-out: MIC
[3] = test system: E. coli; assay: MIC by tube dilution method; type: cell-based; conditions: Escherichia coli, 24 h, 24 h at 37 °C, read-out: MIC
[4] = test system: B. subtilis; assay: MIC by tube dilution method; type: cell-based; conditions: Bacillus subtilis, 24 h at 37 °C, read-out: MIC
[5] = test system: K. pneumonia; assay: Minimum bactericidal concentration (MBC); type: cell-based; conditions: Klebsiella pneumoniae
[6] = test system: S. aureus; assay: Minimum bactericidal concentration (MBC); type: cell-based; conditions: Staphylococcus aureus
[7] = test system: S. enterica; assay: MIC by tube dilution method; type: cell-based; conditions: Salmonella enterica, 24 h, 24 h at 37 °C, read-out: MIC
[8] = test system: S. aureus; assay: MIC by tube dilution method; type: cell-based; conditions: Staphylococcus aureus, 24 h at 37 °C, read-out: MIC
[9] = test system: S. enterica; assay: Minimum bactericidal concentration (MBC); type: cell-based; conditions: Salmonella enterica, read-out: MBC/MFC
Protocol: After MIC assessment, the indole derivatives (DS1–DS21), were additionally evaluated for MBC and MFC values. […] The 10–15 ml of nutrient agar and Sabouraud dextrose agar was added to the petri plates for bacterial and fungal samples respectively with gentle shaking of plates in order to mix the culture throughout the media. Allowed the media to solidify. The petri plates were then incubated for the predefined time and temperature as referenced already for bacterial and fungal cultures respectively. The plates were then investigated visually for the development of microbial growth. The MBC and MFC were stated as the minimum concentration of the compounds in aliquots showing no visual growth after incubation.

[10] = test system: B. subtilis; assay: Minimum bactericidal concentration (MBC); type: cell-based; conditions: Bacillus subtilis
[11] = test system: MDA MB 231; assay: MTT cell proliferation assay; type: cell-based; conditions: MDA MB 231 breast cancer, 48 h of drug treatment
Protocol: (§1) The cell lines used in study were initially procured from the National Centre for Cell Sciences (NCCS), Pune, India, and maintained in DMEM. The cell line was cultured in 25 cm^2 tissue culture flask with DMEM supplemented with 10% FBS, sodium bicarbonate, L-glutamine, and antibiotic solution containing: streptomycin (100 μg/ml), penicillin (100 U/ml). Cultured cell line was kept at 37 °C in a humidified 5% CO2 incubator (VWR, USA).
(§2) The compounds found to have good antimicrobial potential were then screened for their cytotoxicity using MTT […]) assay. 1 × 10^4 cells/well were seeded in 100 µl DMEM/MEM, supplemented with 10% FBS in each well of 96-well microculture plates and incubated for 24 h at 37 °C in a CO2 incubator. After incubation, all the prepared/synthesized compounds were added to the cells at 10, 25, 50 and 100 µg concentrations for 48 h. After 48 h of drug treatment, 10 µl MTT (5 mg/ml) was added to each well and the plates were further incubated for 4 h. Then the supernatant from each well was carefully removed, formazan crystals were dissolved in 100 µl of DMSO and absorbance at 570 nm wavelength was recorded on an ELISA reader. The IC50 value was calculated using the linear regression equation i.e. Y = Mx + C. Here, Y = 50, M and C values were derived from the viability graph. The assay was performed in triplicate.

[12] = test system: K562; assay: MTT cell proliferation assay; type: cell-based; conditions: Homo sapiens, K562 leukemia, 48 h of drug treatment
Protocol: as §1, §2

[13] = test system: HCT 116; assay: MTT cell proliferation assay; type: cell-based; conditions: Homo sapiens, HCT-116, 48 h, HCT 116 colon cancer, 48 h of drug treatment
Protocol: as §1, §2

[14] = test system: A. fumigatus; assay: MIC by tube dilution method; type: cell-based; conditions: Aspergillus fumigatus, 168 h, 7 days at 25 °C, read-out: MIC
[15] = test system: A. niger; assay: Minimum fungicidal concentration (MFC); type: cell-based; conditions: Aspergillus niger, read-out: MBC/MFC
[16] = test system: A. fumigatus; assay: Minimum fungicidal concentration (MFC); type: cell-based; conditions: Aspergillus fumigatus, read-out: MBC/MFC
[17] = test system: A. niger; assay: MIC by tube dilution method; type: cell-based; conditions: Aspergillus niger, 168 h, 7 days at 25 °C, read-out: MIC

Row | IC50 [12] [µg/mL] | IC50 [13] [µg/mL] | Compound | MBC [1] [µg/mL] | MIC [2] [µg/mL] | MIC [3] [µg/mL] | MIC [4] [µg/mL] | MBC [5] [µg/mL] | MBC [6] [µg/mL] | MIC [7] [µg/mL] | MIC [8] [µg/mL] | MBC ([9]; S. enterica, MBC) [µg/mL] | MBC [10] [µg/mL] | IC50 ([11]; Homo sapiens, MDA-MB-231, 48 h, read-out: IC50) [µg/mL] | IC50 [11] [µg/mL] | MIC [14] [µg/mL] | MFC [15] [µg/mL] | MFC [16] [µg/mL] | MIC [17] [µg/mL] | melting point [°C] | MBC [9] [µg/mL]
1 |  |  | CO/N=C(\C(=O)N[C@@H]1C(=O)N2C(C(=O)O)=C(COC(C)=O)CS[C@H]12)c1csc(N)n1 [CFT, cefotaxime, reference compound] | 15.6 (≈ 34.3 µM) | 1.95 (≈ 4.28 µM) | 1.95 (≈ 4.28 µM) | 15.6 (≈ 34.3 µM) | 3.9 (≈ 8.56 µM) | 31.2 (≈ 68.6 µM) | 15.6 (≈ 34.3 µM) | 15.6 (≈ 34.3 µM) | 31.2 (≈ 68.6 µM) | 15.6 (≈ 34.3 µM) |  |  |  |  |  |  |  | 
2 |  |  | O=C(O)c1cn(C2CC2)c2cc(N3CCNCC3)c(F)cc2c1=O [CPR, ciprofloxacin, reference compound] | 31.2 (≈ 94.3 µM) | 7.81 (≈ 23.6 µM) | 3.9 (≈ 11.8 µM) | 7.81 (≈ 23.6 µM) | 7.81 (≈ 23.6 µM) | 62.5 (≈ 189 µM) | 15.6 (≈ 47.1 µM) | 1.95 (≈ 5.89 µM) | 31.2 (≈ 94.3 µM) | 31.2 (≈ 94.3 µM) |  |  |  |  |  |  |  | 
3 | 2.62 ± 0.65 (≈ 4.82 µM) | 3.37 ± 0.37 (≈ 6.2 µM) | COc1cccc2c1C(=O)c1c(O)c3c(c(O)c1C2=O)C[C@@](O)(C(=O)CO)C[C@@H]3O[C@H]1C[C@H](N)[C@H](O)[C@H](C)O1 [DOX, doxorubicin, reference compound] |  |  |  |  |  |  |  |  |  |  | 3 (≈ 5.52 µM) | 3.08 ± 0.95 (≈ 5.67 µM) |  |  |  |  |  | 
4 |  |  | C/C(=N\Cc1ccco1)c1ccc(/N=N/c2c[nH]c3ccccc23)cc1 [DS-1, (E)-N-(2-Furylmethyl)-1-[4-[(E)-1H-indol-3-ylazo]phenyl]ethanimine] | 125 (≈ 365 µM) | 3.9 (≈ 11.4 µM) | 15.6 (≈ 45.6 µM) | 62.5 (≈ 183 µM) |  | 125 (≈ 365 µM) | 62.5 (≈ 183 µM) | 62.5 (≈ 183 µM) | 62.5 (≈ 183 µM) | 125 (≈ 365 µM) |  |  | 62.5 (≈ 183 µM) | 125 (≈ 365 µM) | 125 (≈ 365 µM) | 125 (≈ 365 µM) | 315 to 320 | 
5 |  |  | C/C(=N/c1nnc(-c2ccc([N+](=O)[O-])cc2)s1)c1ccc(/N=N\c2c[nH]c3ccc([N+](=O)[O-])cc23)cc1 [DS-5, (Z)-N-(1-(4-((Z)-(5-Nitro-1H-indol-3-yl)diazenyl)phenyl)ethylidene)-5-(4-nitrophenyl)-1,3,4-thiadiazol-2-amine] | 31.2 (≈ 61 µM) | 3.9 (≈ 7.61 µM) | 1.95 (≈ 3.8 µM) | 62.5 (≈ 122 µM) | 15.6 (≈ 30.5 µM) | 125 (≈ 244 µM) | 31.2 (≈ 61 µM) | 125 (≈ 244 µM) | 62.5 (≈ 122 µM) | 125 (≈ 244 µM) |  |  | 125 (≈ 244 µM) | 125 (≈ 244 µM) | 125 (≈ 244 µM) | 62.5 (≈ 122 µM) | 160 to 165 | 
6 |  |  | CCc1nnc(/N=C(/C)c2ccc(/N=N\c3c[nH]c4ccccc34)cc2)s1 [DS-7, (Z)-N-(1-(4-((Z)-(1H-Indol-3-yl)diazenyl)phenyl)ethylidene)-5-ethyl-1,3,4-thiadiazol-2-amine] | 31.2 (≈ 83.5 µM) | 3.9 (≈ 10.4 µM) | 7.81 (≈ 20.9 µM) | 125 (≈ 334 µM) | 16.2 (≈ 43.4 µM) | 125 (≈ 334 µM) | 31.2 (≈ 83.5 µM) | 62.5 (≈ 167 µM) |  | 125 (≈ 334 µM) |  |  | 62.5 (≈ 167 µM) | 125 (≈ 334 µM) | 125 (≈ 334 µM) | 62.5 (≈ 167 µM) | 145 to 150 | 31.2 (≈ 83.5 µM)
